Drawing on US7446102B2, “Antibacterial amide macrocycles IV” (priority 2004, dated 2008), this text covers MIC and resistance rate for one compound.

Common to all, as to format: cell-based
One experiment deals with S. aureus 133. The experiment is described as follows: Determination of the minimum inhibitory concentration (MIC), S. aureus 133. The following applies: Staphylococcus aureus, 133, read-out: MIC S. aureus 133. As for the experimental part:
(§1) Determination of the Minimum Inhibitory Concentration (MIC)
(§2) The minimum inhibitory concentration (MIC) is the minimum concentration of an antibiotic with which the growth of a test microbe is inhibited over 18-24 h. The inhibitor concentration can in these cases be determined by standard microbiological methods (see, for example, The National Committee for Clinical Laboratory Standards. Methods for dilution antimicrobial susceptibility tests for bacteria that grow aerobically; approved standard-fifth edition. NCCLS document M7-A5 [ISBN 1-56238-394-9]. NCCLS, 940 West Valley Road, Suite 1400, Wayne, Pa. 19087-1898 USA, 2000). The MIC of the compounds of the invention is determined in the liquid dilution test on the 96-well microtitre plate scale. The bacterial microbes are cultivated in a minimal medium (18.5 mM Na2HPO4, 5.7 mM KH2PO4, 9.3 mM NH4Cl, 2.8 mM MgSO4, 17.1 mM NaCl, 0.033 μg/ml thiamine hydrochloride, 1.2 μg/ml nicotinic acid, 0.003 μg/ml biotin, 1% glucose, 25 μg/ml of each proteinogenic amino acid with the exception of phenylalanine; [H.-P. Kroll; unpublished]) with the addition of 0.4% BH broth (test medium). In the case of Enterococcus facium L4001, heat-inactivated fetal calf serum (FCS; GibcoBRL, Germany) is added to the test medium in a final concentration of 10%. Overnight cultures of the test microbes are diluted to an OD578 of 0.001 (to 0.01 in the case of enterococci) in fresh test medium, and incubated 1:1 with dilutions of the test substances (1:2 dilution steps) in test medium (200 μl final volume). The cultures are incubated at 37° C. for 18-24 hours; enterococci in the presence of 5% CO2.
(§3) The lowest substance concentration in each case at which no visible bacterial growth occurred any more is defined as the MIC.
(§4) Alternative Method for Determining the Minimum Inhibitory Concentration (MIC)
(§5) The minimum inhibitory concentration (MIC) is the minimum concentration of an antibiotic with which the growth of a test microbe is inhibited over 18-24 h. The inhibitor concentration can in these cases be determined by standard microbiological methods with modified medium in an agar dilution test (see, for example, The National Committee for Clinical Laboratory Standards. Methods for dilution antimicrobial susceptibility tests for bacteria that grow aerobically; approved standard-fifth edition. NCCLS document M7-A5 [ISBN 1-56238-394-9]. NCCLS, 940 West Valley Road, Suite 1400, Wayne, Pa. 19087-1898 USA, 2000). The bacterial microbes are cultivated on 1.5% agar plates which contain 20% defibrinated horse blood. The test microbes, which are incubated overnight on Columbia blood agar plates (Becton-Dickinson), are diluted in PBS, adjusted to a microbe count of about […] and placed dropwise (1-3 μl) on test plates. The test substances comprise different dilutions of the test substances (1:2 dilution steps). The cultures are incubated at 37° C. in the presence of 5% CO2 for 18-24 hours.
(§6) The lowest substance concentration in each case at which no visible bacterial growth occurred any more is defined as the MIC and is reported in μg/ml.

The subject of another experiment is S. aureus T17. The experiment is described as follows: Determination of the minimum inhibitory concentration (MIC), biphenomycin-resistant S. aureus T17. The following applies: Staphylococcus aureus. As for the experimental part:
as §1, §2, §3, §4, §5, §6
The S. aureus strain T17 is isolated in vivo. CFW1 mice are infected intraperitoneally with 4×10^7 S. aureus 133 cells per mouse. 0.5 h after the infection, the animals are treated intravenously with 50 mg/kg biphenomycin B. The kidneys are removed from the surviving animals on day 3 after the infection. After homogenization of the organs, the homogenates are plated out as described for RN4220Bi^R on antibiotics-free and antibiotics-containing agar plates and incubated at 37° C. overnight. […] About 20 of these colonies are tested for the biphenomycin B MIC, and a colony with an MIC of >50 μM is selected for further cultivation, and the strain is referred to as T17.

The test system of a further experiment is E. faecium L4001. The experiment is described as follows: Determination of the minimum inhibitory concentration (MIC), E. faecium L4001. Conditions: Enterococcus faecium, L4001, read-out: MIC E. faecium L4001. Here is the method:
as §1, §2, §3, §4, §5, §6

A further experiment concerns S. aureus RN4220. The experiment is described as follows: Isolation of biphenomycin-resistant strain from S. aureus RN4220: resistance rate on biphenomycin B agar. The following applies: S. aureus RN4220 on agar plate containing 2 μg/ml biphenomycin B (10×MIC), 37° C. overnight. Here is the method:
Isolation of the Biphenomycin-Resistant S. aureus Strains RN4220Bi^R and T17
(§7) The S. aureus strain RN4220Bi^R is isolated in vitro. For this purpose, 100 μl portions of an S. aureus RN4220 cell suspension (about 1.2×10^8 cfu/ml) are plated out on an antibiotics-free agar plate (18.5 mM Na2HPO4, 5.7 mM KH2PO4, 9.3 mM NH4Cl, 2.8 mM MgSO4, 17.1 mM NaCl, 0.033 μg/ml thiamine hydrochloride, 1.2 μg/ml nicotinic acid, 0.003 μg/ml biotin, 1% glucose, 25 μg/ml of each proteinogenic amino acid with the addition of 0.4% BH broth and 1% agarose) and on an agar plate containing 2 μg/ml biphenomycin B (10×MIC), and incubated at 37° C. overnight. Whereas about 1×10^7 cells grow on the antibiotics-free plate, about 100 colonies grow on the antibiotics-containing plate, corresponding to a resistance rate of 1×10^−5. Some of the colonies grown on the antibiotics-containing plate are tested for the biphenomycin B MIC. One colony with an MIC of >50 μM is selected for further use, and the strain is referred to as RN4220Bi^R.

Another experiment concerns S. aureus RN4220Bi^R. The experiment is described as follows: MIC on biphenomycin-resistant S. aureus RN4220Bi^R. Conditions: Staphylococcus aureus, read-out: MIC, selected colony (strain RN4220Bi^R). Here is the method: as §7

Structures are written as SMILES. Where a name gives a salt, the structure may show the parent alone. Read-outs that look alike come from different tables or passages of the source.

As a reminder, the MIC is the smallest concentration in the dilution series that meets the test's criterion for growth inhibition. As to `NC[C@H](O)C[C@@H]1NC(=O)[C@@H](N)Cc2cc(ccc2O)-c2ccc(O)c(c2)C[C@@H](C(=O)O)NC1=O` [Example 20A, 14(S)-Amino-11(S)-(3-amino-2(R)-hydroxypropyl)-5,17-dihydroxy-10,13-dioxo-9,12-diazatricyclo[14.3.1.1^2,6]henicosa-1(19),2,4,6(21),16(20),17-hexaene-8(S)-carboxylic acid dihydrochloride, reference compound], the MIC in the experiment with S. aureus 133 was under 0.03 µg/mL; in the experiment with S. aureus T17 (biphenomycin-resistant strain, no visible bacterial growth, 18-24 h, 37° C., read-out: MIC S. aureus T17), over 32 µg/mL; with S. aureus T17 (colony isolated from kidney of mice treated with 50 mg/kg biphenomycin B, read-out: MIC, selected colony (strain T17)) it was over 50 µM; with E. faecium L4001, 0.5 µg/mL; in the experiment on S. aureus RN4220Bi^R it was over 50 µM. For the same compound, in the experiment with S. aureus RN4220, the resistance rate is reported as 1×10^−5.
